The values below come from publication PMC8554203, “Inhibition of Bromodomain and Extra Terminal (BET) Domain Activity Modulates the IL-23R/IL-17 Axis and Suppresses Acute Graft-Versus-Host Disease” (Frontiers in Oncology, 2021).

Read-outs that look alike come from different tables or passages of the source.

Assay [1] deals with T1, BRD2 (Homo sapiens, UniProt P25440).
T1 construct: BRD2-BD12 (engineered protein containing both bromodomains)
Description: substrate binding (displacement) assay with engineered tandem bromodomain protein.

Assay [2] deals with T2, BRD4 (Homo sapiens, UniProt O60885).
T2 construct: BRD4-BD12 (engineered protein containing both bromodomains)
The description is as above. The following applies: read-out: PLX2853 / IC50 (μM) ^a.

T1 sequence (P25440 74-453 limits assumed): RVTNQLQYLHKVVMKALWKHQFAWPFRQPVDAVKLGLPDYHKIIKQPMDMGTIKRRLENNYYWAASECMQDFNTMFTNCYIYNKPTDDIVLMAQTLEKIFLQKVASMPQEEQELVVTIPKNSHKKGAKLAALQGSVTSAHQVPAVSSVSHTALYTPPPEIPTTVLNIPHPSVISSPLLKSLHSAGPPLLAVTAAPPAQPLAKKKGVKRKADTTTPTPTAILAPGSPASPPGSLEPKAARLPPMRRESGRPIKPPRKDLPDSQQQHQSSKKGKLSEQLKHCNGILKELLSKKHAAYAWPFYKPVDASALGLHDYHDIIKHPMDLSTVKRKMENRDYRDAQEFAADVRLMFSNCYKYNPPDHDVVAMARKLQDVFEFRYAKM

In the case of `Cc1noc(C)c1-c1cnc2c(-c3ccc(C(=O)O)cc3)cn([C@@H](C)c3ccccn3)c2c1` [PLX51107], the IC50 in assay [1] was determined as 0.052 µM.
As for `Cc1noc(C)c1-c1cnc2c(-c3ccc(C(=O)O)cc3)cn(C(C)(c3ccccn3)c3ccccn3)c2c1` [PLX2853], the IC50 in assay [2] was 0.0043 µM; in assay [1] (read-out: PLX2853 / IC50 (μM) ^a), 0.0073 µM.
